# Patent US20230159509A1 (Amathus Therapeutics, Inc., priority 2020, published 2023)
# Target: T1, TRAP1 enzyme (Homo sapiens, UniProt Q12931)
# T1 construct: 150 nM Trap1 enzyme was incubated with various concentrations of the test compound
# T1 sequence (Q12931 60-704): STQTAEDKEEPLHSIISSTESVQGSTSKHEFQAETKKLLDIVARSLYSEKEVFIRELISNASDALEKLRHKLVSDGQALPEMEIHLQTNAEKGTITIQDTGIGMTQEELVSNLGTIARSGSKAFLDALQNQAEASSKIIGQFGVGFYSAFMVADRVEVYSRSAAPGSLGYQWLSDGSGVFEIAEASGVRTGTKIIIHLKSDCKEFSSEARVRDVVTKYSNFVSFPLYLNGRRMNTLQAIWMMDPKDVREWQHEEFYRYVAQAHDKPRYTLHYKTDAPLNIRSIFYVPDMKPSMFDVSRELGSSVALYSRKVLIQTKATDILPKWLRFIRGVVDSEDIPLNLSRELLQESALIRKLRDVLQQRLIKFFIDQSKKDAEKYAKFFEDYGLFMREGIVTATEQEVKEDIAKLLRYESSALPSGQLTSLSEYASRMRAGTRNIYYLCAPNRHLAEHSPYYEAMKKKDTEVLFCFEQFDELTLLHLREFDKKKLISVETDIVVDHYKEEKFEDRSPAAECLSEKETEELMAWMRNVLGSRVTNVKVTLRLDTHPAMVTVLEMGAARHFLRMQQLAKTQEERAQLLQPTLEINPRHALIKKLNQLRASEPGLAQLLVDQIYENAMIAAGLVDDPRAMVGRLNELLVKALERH
# Test: ADP Glo assay of TRAP1 ATPase activity
# Format: biochemical
# Settings: for EC50: concentration for half maximal activation, read-out: ADP GLO DRC: GeoMean EC50; for Emax: maximal percent activation, read-out: ADP GLO DRC: Mean Emax
# Method in brief: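 ADP-Glo luminescence quantifying ADP from 150 nM TRAP1 preincubated 30 min at 37° C with compound (0.79–100 μM), then 20 μM ATP for 60 min at 37° C. Buffer: 25 mM Pipes pH 7.5, 40 mM KCl, 0.05 mM MgCl2, EGTA, BSA, detergents. ADP from ATP/ADP standard curve; Emax and EC50 from sigmoidal fit.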
Structure (SMILES),EC50,Emax
COc1ncc(NC(=O)c2csc(-c3ccccc3)n2)cc1S(=O)(=O)Nc1ccc(C)nc1C [compound 1780],20 to 100 µM,119 to 159%
COc1ncc(NC(=O)c2csc(-c3ccccc3)n2)cc1S(=O)(=O)Nc1cc(C)no1 [compound 1784],20 to 100 µM,119 to 159%
COc1ncc(NC(=O)c2csc(-c3ccccc3)n2)cc1S(=O)(=O)Nc1ccc(C#N)nc1 [compound 1785],20 to 100 µM,200 to 300%
COc1ncc(NC(=O)c2csc(-c3ccccc3)n2)cc1S(=O)(=O)Nc1cc(C)cnc1C [compound 1792],20 to 100 µM,119 to 159%
COc1ncc(NC(=O)c2ncc(-c3ccccc3)o2)cc1S(=O)(=O)Nc1c(C(C)C)ccnc1C(C)C [compound 1808],10 to 20 µM,200 to 300%
CNc1ncc(C(F)(F)F)cc1NS(=O)(=O)c1cc(NC(=O)c2ncc(-c3ccccc3)o2)cnc1OC [compound 1824],20 to 100 µM,160 to 199%
COc1ncc(NC(=O)c2csc(-c3ccccc3)n2)cc1S(=O)(=O)Nc1nc(C(C)(C)C)ns1 [compound 1839],10 to 20 µM,200 to 300%
COc1cc(NS(=O)(=O)c2cc(NC(=O)c3csc(-c4ccccc4)n3)cnc2OC)ccn1 [compound 1878],20 to 100 µM,119 to 159%
COc1ncc(NC(=O)c2csc(-c3ccccc3)n2)cc1S(=O)(=O)Nc1ccnc(C(F)(F)F)c1 [compound 1895],20 to 100 µM,160 to 199%
COc1ncc(NC(=O)c2ncc(-c3ccccc3)o2)cc1S(=O)(=O)Nc1cc(F)c(C)cc1C#N [compound 1898],20 to 100 µM,200 to 300%
COc1ncc(NC(=O)c2ncc(-c3ccccc3)o2)cc1S(=O)(=O)Nc1ccc2c(n1)CCC2 [compound 1908],20 to 100 µM,119 to 159%
COc1ncc(NC(=O)c2csc(-c3ccccc3)n2)cc1S(=O)(=O)Nc1c(C#N)cnn1C [compound 1911],20 to 100 µM,119 to 159%
COc1ncc(NC(=O)c2csc(-c3ccccc3)n2)cc1S(=O)(=O)Nc1nnn(Cc2ccccc2)n1 [compound 1912],20 to 100 µM,200 to 300%
COc1ncc(NC(=O)c2csc(-c3ccccc3)n2)cc1S(=O)(=O)Nc1ccc2nn[nH]c2c1 [compound 1926],20 to 100 µM,119 to 159%
"COc1ncc(NC(=O)c2ccnc(Br)c2)cc1S(=O)(=O)Nc1c(C)cccc1C [compound 1935, 1,2-bromo-N-(5-(N-(2,6-dimethylphenyl)sulfamoyl)-6-methoxypyridin-3-yl)isonicotinamide]",20 to 100 µM,200 to 300%
"COc1ncc(NC(=O)c2coc(-c3ccc(F)cc3)n2)cc1S(=O)(=O)Nc1c(C)cc(F)cc1C [compound 1937, N-(5-(N-(4-fluoro-2,6-dimethylphenyl)sulfamoyl)-6-methoxypyridin-3-yl)-2-(4-fluorophenyl) oxazole-4-carboxamide]",< 10 µM,119 to 159%
"COc1ncc(NC(=O)c2ccnc(-c3cccnc3)c2)cc1S(=O)(=O)Nc1c(C)cccc1C [compound 1940, N-(5-(N-(2,6-dimethylphenyl)sulfamoyl)-6-methoxypyridin-3-yl)-[2,3′-bipyridine]-4-carboxamide]",10 to 20 µM,> 300%

Structure (SMILES),EC50,Emax
"COc1ncc(NC(=O)c2coc(-c3ccccc3)n2)cc1S(=O)(=O)Nc1c(C)cccc1Cl [compound 1941, N-(5-(N-(2-chloro-6-methylphenyl)sulfamoyl)-6-methoxypyridin-3-yl)-2-phenyloxazole-4-carboxamide]",< 10 µM,160 to 199%
"COc1ncc(NC(=O)c2cccc(-c3ccnn3C)c2)cc1S(=O)(=O)Nc1c(C)cccc1C [compound 1942, N-(5-(N-(2,6-dimethylphenyl)sulfamoyl)-6-methoxypyridin-3-yl)-3-(1-methyl-1H-pyrazol-5-yl)benzamide]",10 to 20 µM,> 300%
"COc1ncc(NC(=O)c2csc3c2C2CCN3CC2)cc1S(=O)(=O)Nc1ccc(Cl)cc1 [compound 1944, N-(5-(N-(4-chlorophenyl)sulfamoyl)-6-methoxypyridin-3-yl)-5,6-dihydro-4H-4,7-ethanothieno[2,3-b]pyridine-3-carboxamide]",10 to 20 µM,200 to 300%
"COc1ncc(NC(=O)c2csc3c2C2CCN3CC2)cc1S(=O)(=O)Nc1c(C)cccc1C [compound 1946, N-(5-(N-(2,6-dimethylphenyl)sulfamoyl)-6-methoxypyridin-3-yl)-5,6-dihydro-4H-4,7-ethanothieno[2,3-b]pyridine-3-carboxamide]",< 10 µM,160 to 199%
"COc1ncc(NC(=O)c2csc3c2CN(C(=O)OC(C)(C)C)CC3)cc1S(=O)(=O)Nc1c(C)cccc1C [compound 1949, tert-butyl 3-((5-(N-(2,6-dimethylphenyl)sulfamoyl)-6-methoxypyridin-3-yl)carbamoyl)-6,7-dihydrothieno[3,2-c]pyridine-5(4H)-carboxylate]",< 10 µM,200 to 300%
"COc1ncc(NC(=O)c2coc(-c3ccccc3)n2)cc1S(=O)(=O)Nc1ccc(F)cc1C [compound 1950, N-(5-(N-(4-fluoro-2-methylphenyl)sulfamoyl)-6-methoxypyridin-3-yl)-2-phenyloxazole-4-carboxamide]",< 10 µM,119 to 159%
"COc1ncc(NC(=O)c2csc(-c3ccccc3)n2)cc1S(=O)(=O)Nc1c(C)cccc1O [compound 1953, N-(5-(N-(2-hydroxy-6-methylphenyl)sulfamoyl)-6-methoxypyridin-3-yl)-2-phenylthiazole-4-carboxamide]",20 to 100 µM,119 to 159%
"COc1ncc(NC(=O)c2csc(-c3ccccc3)n2)cc1S(=O)(=O)Nc1sccc1C [compound 1954, N-(6-methoxy-5-(N-(3-methylthiophen-2-yl)sulfamoyl)pyridin-3-yl)-2-phenylthiazole-4-carboxamide]",20 to 100 µM,119 to 159%
"COc1ncc(NC(=O)c2csc3c2CN(C)CC3)cc1S(=O)(=O)Nc1c(C)cccc1C [compound 1956, N-(5-(N-(2,6-dimethylphenyl)sulfamoyl)-6-methoxypyridin-3-yl)-5-methyl-4,5,6,7-tetrahydrothieno[3,2-c]pyridine-3-carboxamide]",20 to 100 µM,200 to 300%
"COc1ncc(NC(=O)c2ncoc2C)cc1S(=O)(=O)Nc1ccc(Cl)cc1 [compound 1959, N-(5-(N-(4-chlorophenyl)sulfamoyl)-6-methoxypyridin-3-yl)-5-methyloxazole-4-carboxamide]",10 to 20 µM,160 to 199%
"COc1ncc(NC(=O)c2coc(-c3ccccc3)n2)cc1S(=O)(=O)Nc1c(Cl)cccc1C(F)(F)F [compound 1962, N-(5-(N-(2-chloro-6-(trifluoromethyl)phenyl)sulfamoyl)-6-methoxypyridin-3-yl)-2-phenyloxazole-4-carboxamide]",20 to 100 µM,160 to 199%
"COc1ncc(NC(=O)c2coc(-c3ccccc3)n2)cc1S(=O)(=O)Nc1c(C)cc(C#N)cc1C [compound 1965, N-(5-(N-(4-cyano-2,6-dimethylphenyl)sulfamoyl)-6-methoxypyridin-3-yl)-2-phenyloxazole-4-carboxamide]",< 10 µM,119 to 159%
"COc1ncc(NC(=O)c2coc(-c3ccccc3)n2)cc1S(=O)(=O)Nc1ncc(Cl)cc1C [compound 1966, N-(5-(N-(5-chloro-3-methylpyridin-2-yl)sulfamoyl)-6-methoxypyridin-3-yl)-2-phenyloxazole-4-carboxamide]",20 to 100 µM,160 to 199%
"COc1ncc(NC(=O)c2csc(-c3ccccc3)n2)cc1S(=O)(=O)Nc1c(C(F)(F)F)cccc1C(F)(F)F [compound 1970, N-(5-(N-(2,6-bis(trifluoromethyl)phenyl)sulfamoyl)-6-methoxypyridin-3-yl)-2-phenylthiazole-4-carboxamide]",10 to 20 µM,200 to 300%
"COc1ncc(NC(=O)c2csc3c2CNCC3)cc1S(=O)(=O)Nc1c(C)cccc1C [compound 1972, N-(5-(N-(2,6-dimethylphenyl)sulfamoyl)-6-methoxypyridin-3-yl)-4,5,6,7-tetrahydrothieno[3,2-c]pyridine-3-carboxamide]",20 to 100 µM,160 to 199%
"COc1ncc(NC(=O)c2coc(-c3ccccc3)n2)cc1S(=O)(=O)Nc1ncc(Cl)cc1F [compound 1977, N-(5-(N-(5-chloro-3-fluoropyridin-2-yl)sulfamoyl)-6-methoxypyridin-3-yl)-2-phenyloxazole-4-carboxamide]",20 to 100 µM,200 to 300%
"COc1ncc(NC(=O)c2csc(-c3ccccc3)n2)cc1S(=O)(=O)Nc1c(C)csc1C [compound 1985, N-(5-(N-(2,4-dimethylthiophen-3-yl)sulfamoyl)-6-methoxypyridin-3-yl)-2-phenylthiazole-4-carboxamide]",< 10 µM,160 to 199%
